Where “and” joins values, the source holds several entries; their conditions need not be identical. Equal entries are not always repeated.
Legend:
PARP11 = target: T1, PARP11 (Homo sapiens, UniProt Q9NR21); assay: Inhibition of PARP11-mediated ADP-ribosylation of SRPK2 using NAD+ (100 μM); assay type: biochemical; conditions: for IC50 / PARP11 pIC50 ± S.E.M.: ADP-ribosylation of SRPK2, NAD+ 100 μM
T1 sequence (Q9NR21 1-338): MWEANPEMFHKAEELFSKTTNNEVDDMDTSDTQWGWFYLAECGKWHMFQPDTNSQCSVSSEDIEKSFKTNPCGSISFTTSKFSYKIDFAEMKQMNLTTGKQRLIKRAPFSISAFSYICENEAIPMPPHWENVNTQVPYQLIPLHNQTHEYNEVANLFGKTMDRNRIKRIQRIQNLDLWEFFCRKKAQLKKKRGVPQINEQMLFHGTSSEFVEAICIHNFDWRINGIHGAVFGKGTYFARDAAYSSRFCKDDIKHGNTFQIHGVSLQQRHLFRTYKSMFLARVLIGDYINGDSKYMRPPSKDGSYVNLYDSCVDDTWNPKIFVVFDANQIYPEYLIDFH

PARP10cat = target: T2, PARP10cat (Homo sapiens, UniProt Q53GL7); assay: Inhibition of PARP10cat-mediated ADP-ribosylation of SRPK2 using NAD+ (100 μM); assay type: biochemical; conditions: for IC50 / PARP10cat pIC50 ± S.E.M.: ADP-ribosylation of SRPK2, NAD+ 100 μM; for PARP11/PARP10: ratio of IC50 values, PARP11 over PARP10cat; for increase in potency for PARP10 compared to comparator compound: 8 and 3 compared to unsubstituted 1, 14 compared to 3; for improvement in selectivity for PARP10 over PARP11 compared to parent compound: 12 vs 8, 14 vs 3, 20, 22 vs 16, 23, 24 vs 15
T2 sequence (Q53GL7 806-1025 limits assumed): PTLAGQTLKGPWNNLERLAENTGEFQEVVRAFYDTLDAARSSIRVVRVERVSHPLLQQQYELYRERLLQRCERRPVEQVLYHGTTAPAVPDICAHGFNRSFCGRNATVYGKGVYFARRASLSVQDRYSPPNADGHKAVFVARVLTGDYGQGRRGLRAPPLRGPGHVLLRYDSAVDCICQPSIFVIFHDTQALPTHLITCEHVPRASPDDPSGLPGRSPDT

[1] = Aqueous solubility observed when assaying; assay type: physicochemical; conditions: observed in assays

Row | Compound | IC50 (PARP11) | PARP11 pIC50 ± S.E.M. (PARP11) | IC50 (PARP10cat) | PARP10cat pIC50 ± S.E.M. (PARP10cat) | PARP11/PARP10 (PARP10cat) | selectivity for PARP10 over PARP11 (PARP10cat) | increase in potency for PARP10 compared to comparator compound (PARP10cat) | selectivity for PARP11 over PARP10 (PARP11) | decrease in potency for PARP11 compared to compound 8 (PARP11) | improvement in selectivity for PARP10 over PARP11 compared to parent compound (PARP10cat) | aqueous solubility [1]
1 | O=C1NCCc2c(Br)cccc21 [Compound 2] | 2.9 µM | 5.54 ± 0.04 | 10.1 µM | 4.99 ± 0.04 | 0.29 | – | – | – | – | – | –
2 | Cc1cccc2c1CCNC2=O [Compound 3, 5-methyl-dq] | 2.1 µM | 5.67 ± 0.05 | 8.6 µM | 5.01 ± 0.03 | 0.24 | 0.24 fold | 8 fold | – | – | – | –
3 | O=C1NCCc2c1cccc2-c1ccccc1 [Compound 4] | 1.2 µM | 5.93 ± 0.04 | 35 µM | 4.46 ± 0.04 | 0.03 | – | – | 30 fold | – | – | –
4 | O=C1NCCc2cc(Br)ccc21 [Compound 5] | 13.5 µM | 4.87 ± 0.03 | 17.1 µM | 4.77 ± 0.03 | 0.79 | – | – | – | – | – | –
5 | Cc1ccc2c(c1)CCNC2=O [Compound 6] | 34.1 µM | 4.47 ± 0.06 | 33.1 µM | 4.48 ± 0.04 | 1.0 | – | – | – | – | – | –
6 | O=C1NCCc2cc(Cc3ccccc3)ccc21 [Compound 7] | 16.7 µM | 4.78 ± 0.03 | – | – | <0.33 | – | – | – | – | – | –
7 | O=C1NCCc2cc(-c3ccccc3)ccc21 [Compound 8] | 8.7 µM | 5.06 ± 0.03 | 2.5 µM | 5.61 ± 0.03 | 3.5 | 4 fold | 28 fold | – | – | – | –
8 | O=C1NCCc2cc(-c3cccc(F)c3)ccc21 [Compound 9] | 6.1 µM | 5.22 ± 0.04 | 1.4 µM | 5.85 ± 0.03 | 4.4 | – | – | – | – | – | –
9 | O=C1NCCc2cc(-c3cccc(Cl)c3)ccc21 [Compound 10] | 5.8 µM | 5.24 ± 0.03 | 1.1 µM | 5.95 ± 0.02 | 5.3 | – | – | – | – | – | –
10 | Cc1cccc(-c2ccc3c(c2)CCNC3=O)c1 [Compound 11] | 4.6 µM | 5.34 ± 0.03 | 2.1 µM | 5.67 ± 0.02 | 2.2 | – | – | – | – | – | –
11 | O=C1NCCc2cc(-c3cccc(C(F)(F)F)c3)ccc21 [Compound 12] | 17.4 µM | 4.76 ± 0.04 | 2.3 µM | 5.65 ± 0.03 | 7.6 | 8 fold | – | – | 2 fold | 2 fold | –
12 | Cc1c(-c2ccccc2)ccc2c1CCNC2=O [Compound 14, 5-methyl-6-phenyl-3,4-dihydroisoquinolin-1(2H)-one] | 26.4 µM | 4.58 ± 0.07 | – | 5.80 ± 0.03 | 17 | 17 fold | 5 fold | – | – | 70 fold | aqueous solubility issues at higher concentrations
13 | Cc1c(-c2cccnc2)ccc2c1CCNC2=O [Compound 15, 5-methyl-6-(pyridiny-3-yl)-3,4-dihydroisoquinolin-1(2H)-one] | 30.4 µM | 4.52 ± 0.06 | 2.5 µM | 5.60 ± 0.04 | 12 | 12 fold | – | – | – | – | increased solubility compared to 14
14 | Cc1c(-c2ccncc2)ccc2c1CCNC2=O [Compound 16, 5-methyl-6-(pyridiny-4-yl)-3,4-dihydroisoquinolin-1(2H)-one] | 21.2 µM | 4.67 ± 0.04 | 1.4 µM | 5.84 ± 0.03 | 15 | 15 fold | – | – | – | – | increased solubility compared to 14
15 | Cc1c(-c2ccc3[nH]ccc3c2)ccc2c1CCNC2=O [Compound 17, 6-(1H-indol-5-yl)-5-methyl-3,4-dihydroisoquinolin-1(2H)-one] | 4.2 µM | 5.38 ± 0.04 | 1.1 µM | 5.96 ± 0.03 | 3.8 | 4 fold | – | – | – | – | –
16 | Cc1c(-c2cnc3[nH]ccc3c2)ccc2c1CCNC2=O [Compound 18, 5-methyl-6-(1H-pyrrolo[2,3-b]pyridin-5-yl)-3,4-dihydroisoquinolin-1(2H)-one] | 12 µM | 4.92 ± 0.05 | 0.71 µM | 6.15 ± 0.03 | 17 | 17 fold | – | – | – | – | –
17 | Cc1c(-c2cnc3ccccc3c2)ccc2c1CCNC2=O [Compound 19, 5-methyl-6-(quinolin-3-yl)-3,4-dihydroisoquinolin-1(2H)-one] | 14 µM | 4.86 ± 0.04 | 1.8 µM | 5.75 ± 0.02 | 7.8 | 8 fold | – | – | – | – | –
18 | Cc1c(-c2ccnc(F)c2)ccc2c1CCNC2=O [Compound 20, 6-(2-fluoropyridin-4-yl)-5-methyl-3,4-dihydroisoquinolin-1(2H)-one] | 44.7 µM | 4.35 ± 0.05 | 1.9 µM | 5.71 ± 0.03 | 24 | 24 fold | – | – | – | ~2 fold | –
19 | Cc1c(-c2ccnc(Cl)c2)ccc2c1CCNC2=O [Compound 21, 6-(2-chloropyridin-4-yl)-5-methyl-3,4-dihydroisoquinolin-1(2H)-one] | 27 µM | 4.57 ± 0.02 | 1.8 µM | 5.76 ± 0.03 | 15 | retained similar selectivity | – | – | – | – | –
20 | Cc1c(-c2cncc(F)c2)ccc2c1CCNC2=O [Compound 23, 6-(5-fluoropyridin-3-yl)-5-methyl-3,4-dihydroisoquinolin-1(2H)-one] | 54.7 µM | 4.23 ± 0.03 | 2.2 µM | 5.66 ± 0.02 | 25 | 25 fold | – | – | – | – | –
21 | Cc1c(-c2cncc(C(F)(F)F)c2)ccc2c1CCNC2=O [Compound 24, 5-methyl-6-(5-(trifluoromethyl)pyridin-3-yl)-3,4-dihydroisoquinolin-1(2H)-on] | 92.1 µM | 4.04 ± 0.03 | – | 5.57 ± 0.03 | 34 | 34 fold and 35 fold | – | – | – | – | –
22 | NC(=O)c1ccc(Oc2ccc(C(N)=O)cc2)cc1 [OUL35, 4,4′-oxydibenzamide, reference compound] | 2.1 µM | 5.68 ± 0.03 | – | – | – | – | – | – | – | – | –

— patent US10899733B2, “Inhibitors of PARPs that catalyze mono-ADP-ribosylation” (OREGON HEALTH & SCIENCE UNIVERSITY, priority 2017, dated 2021)
